ChEMBL document CHEMBL1128067, “Isosteric replacement of the indole nucleus by benzothiophene in a series of pyrido[2,3-b]indoles with potential anxiolytic activity” (Bioorg Med Chem Lett, 1995)

Legend:
[1] = molecular target: GABA-A receptor; anion channel; assay: In vitro inhibition of [35S]t-butyl-bicyclophosphorothionate (TBPS) binding to Gamma-aminobutyric acid A (GABA-A) receptor; type: protein-complex assay, Rattus norvegicus
Rattus norvegicus [2] = assay: Percent change in punished responding phase (FR) after administration of 20 mg/Kg oral dose in rat Geller-Seifter test; type: functional
Rattus norvegicus [3] = assay: Percent change in variable interval unpunished responding phase (VI) after administration of 20 mg/Kg oral dose in rat Geller-Seifter test.; type: functional
Rattus norvegicus [4] = species on record: Rattus norvegicus; assay: Number of animals responding to the above phases out of 6 tested, expressed as Nr/N; type: functional
[5] = molecular target: GABA-A receptor; anion channel; assay: Inhibition of [3H]flunitrazepam binding to GABA-A receptor; type: protein-complex assay, Rattus norvegicus
Rattus norvegicus [6] = species on record: Rattus norvegicus; assay: Number of animals responding to the above phases out of 16 tested, expressed as Nr/N; type: functional
Rattus norvegicus [7] = assay: Percent change in variable interval unpunished responding phase (VI) after administration of 40 mg/Kg intraperitoneally in rat Geller-Seifter test.; type: functional
Rattus norvegicus [8] = species on record: Rattus norvegicus; assay: Number of animals responding to the above phases out of 8 tested, expressed as Nr/N; type: functional
Rattus norvegicus [9] = assay: Percent change in punished responding phase (FR) after administration of 40 mg/Kg intraperitoneally in rat Geller-Seifter test; type: functional
Rattus norvegicus [10] = assay: Percent change in punished responding phase (FR) after administration of 20 mg/kg oral dose in rat Geller-Seifter test; type: functional
Rattus norvegicus [11] = assay: Percent change in variable interval unpunished responding phase (VI) after administration of 20 mg/kg oral dose in rat Geller-Seifter test.; type: functional
Rattus norvegicus [12] = assay: Percent change in punished responding phase (FR) after administration of 20 mg/kg oral dose in rat Geller-Seifter test.; type: functional
Rattus norvegicus [13] = assay: Percent change in punished responding phase (FR) after administration of 10 mg/Kg oral dose in rat Geller-Seifter test; type: functional
Rattus norvegicus [14] = assay: Percent change in variable interval unpunished responding phase (VI) after administration of 10 mg/Kg oral dose in rat Geller-Seifter test; type: functional

Row | SMILES | IC50 [1] [µM] | Nr/N (Rattus norvegicus [4]) | IC50 [5] [µM] | also measured
1 | CC1CCc2nc3sc4c(c3c(N)c2C1=O)CCC4 (stereo unspecified) | 1.7 | 5 | – | Change (Rattus norvegicus [2]): 26%; Change (Rattus norvegicus [3]): 0%
2 | COC(=O)c1c(C)nc2c(c(C)c(C)n2C)c1N | 12 | – | > 100 | –
3 | Cn1c2ccccc2c2c(N)c3c(nc21)CCCC3 | > 100 | – | – | –
4 | CCOC(=O)c1c(C)nc2c(c1N)c1ccccc1n2C | – | – | > 100 | Change (Rattus norvegicus [2]): 22%; Change (Rattus norvegicus [3]): -3%; Nr/N (Rattus norvegicus [6]): 12
5 | CC1CCc2nc3sc4ccccc4c3c(N)c2C1=O (stereo unspecified) | 0.46 | 5 | – | Change (Rattus norvegicus [2]): 30%; Change (Rattus norvegicus [3]): 0%
6 | CC1CCc2nc3sc4c(c3c(N)c2C1=O)CCCC4 (stereo unspecified) | 1.6 | – | – | –
7 | COC(=O)c1c(C)nc2sc3c(c2c1N)CCCC3 | 7.5 | – | – | Change (Rattus norvegicus [7]): 0%; Nr/N (Rattus norvegicus [8]): 8; Change (Rattus norvegicus [9]): 42%
8 | CC1CCc2nc3c(c(N)c2C1=O)c1c(n3C)CCCC1 (stereo unspecified) | 2.7 | 5 | 18 | Change (Rattus norvegicus [10]): 28%; Change (Rattus norvegicus [11]): 1%
9 | CC1CCc2nc3sc4c(c3c(N)c2C1=O)CCCCC4 (stereo unspecified) | 0.37 | – | – | –
10 | CC1CCc2nc3c(c(N)c2C1=O)c1ccccc1n3C (stereo unspecified) | – | 5 | > 100 | Change (Rattus norvegicus [2]): 52%; Change (Rattus norvegicus [3]): 0%
11 | Nc1c2c(nc3sc4c(c13)CCCCC4)CCCC2=O | 0.29 | – | > 100 | –
12 | Cn1c2c(c3c(N)c4c(nc31)CCCC4=O)CCCC2 | 6.3 | – | – | –
13 | Cn1c2ccccc2c2cc3c(nc21)CCCC3=O | 10 | 3 | > 100 | Change (Rattus norvegicus [12]): 4%; Change (Rattus norvegicus [11]): 2%
14 | CN1C(=O)CN=C(c2ccccc2)c2cc(Cl)ccc21 [DIAZEPAM] | – | – | – | Change (Rattus norvegicus [13]): 114%; Change (Rattus norvegicus [14]): 10%; Nr/N (Rattus norvegicus [8]): 7
